Laboratory results reported in ChEMBL document CHEMBL1141688, “Design, synthesis and preliminary biological evaluation of new hydroxamate histone deacetylase inhibitors as potential antileukemic agents” (Bioorg Med Chem Lett, 2008).

How the values were obtained:
[1] = tested on: NB-4; assay: Antiproliferative activity against human NB4 cells after 48 hrs; format: functional, cell-based; conditions: NB-4, 48 h
[2] = tested on: NB-4; assay: Induction of apoptosis in human NB4 cells assessed as viable cells at 2.5 uM after 48 hrs using annexin V-fluos/propidium iodide staining by cytofluorimetric analysis; format: functional; conditions: NB-4, 48 h, read-out: Activity
[3] = tested on: NB-4; assay: Induction of apoptosis in human NB4 cells assessed as necrotic cells at 2.5 uM after 48 hrs using annexin V-fluos/propidium iodide staining by cytofluorimetric analysis; format: functional
[4] = tested on: NB-4; assay: Induction of apoptosis in human NB4 cells assessed as early apoptotic cells at 2.5 uM after 48 hrs using annexin V-fluos/propidium iodide staining by cytofluorimetric analysis; format: functional
[5] = tested on: NB-4; assay: Induction of apoptosis in human NB4 cells assessed as late apoptotic cells at 2.5 uM after 48 hrs using annexin V-fluos/propidium iodide staining by cytofluorimetric analysis; format: functional
[6] = tested on: NB-4; assay: Induction of apoptosis in human NB4 cells assessed as early apoptotic cells at 5 uM after 48 hrs using annexin V-fluos/propidium iodide staining by cytofluorimetric analysis; format: functional
[7] = tested on: NB-4; assay: Induction of apoptosis in human NB4 cells assessed as viable cells at 5 uM after 48 hrs using annexin V-fluos/propidium iodide staining by cytofluorimetric analysis; format: functional; conditions: NB-4, 48 h, read-out: Activity
[8] = tested on: NB-4; assay: Induction of apoptosis in human NB4 cells assessed as late apoptotic cells at 5 uM after 48 hrs using annexin V-fluos/propidium iodide staining by cytofluorimetric analysis; format: functional
[9] = tested on: NB-4; assay: Induction of apoptosis in human NB4 cells assessed as necrotic cells at 5 uM after 48 hrs using annexin V-fluos/propidium iodide staining by cytofluorimetric analysis; format: functional

## CN1C(=O)CN=C(c2ccccc2)c2cc(C#CCCCC(=O)NO)ccc21
[1]
  IC50: 0.62 µM

## CN1C(=O)CN=C(c2ccccc2)c2cc(NC(=O)CCCCCCC(=O)NO)ccc21
[1]
  IC50: 2.5 µM

## C[C@H]1N=C(c2ccccc2)c2cc(C#CCCCC(=O)NO)ccc2N(C)C1=O
[1]
  IC50: 4.8 µM
[2]
  viability at 2.5 µM: 89.8%
[3]
  Activity: 0.4%
[4]
  Activity: 1.5%
[5]
  Activity: 8.3%

## CC1N=C(c2ccccc2)c2cc(NC(=O)CCCCCCC(=O)NO)ccc2N(C)C1=O (racemic)
[1]
  IC50: 4.09 µM

## C[C@@H]1N=C(c2ccccc2)c2cc(NC(=O)CCCCCCC(=O)NO)ccc2N(C)C1=O
[1]
  IC50: 5.83 µM

## C[C@@H]1N=C(c2ccccc2)c2cc(C#CCCCC(=O)NO)ccc2N(C)C1=O
[1]
  IC50: 0.61 µM
[2]
  viability at 2.5 µM: 12%
[3]
  Activity: 0.6%
[4]
  Activity: 30.8%
[5]
  Activity: 56.6%

## C[C@H]1N=C(c2ccccc2)c2cc(NC(=O)CCCCCCC(=O)NO)ccc2N(C)C1=O
[1]
  IC50: 3.71 µM

## CC1N=C(c2ccccc2)c2cc(C#CCCCC(=O)NO)ccc2N(C)C1=O (racemic)
[1]
  IC50: 1.26 µM
[6]
  Activity: 35.6%
[7]
  viability at 5 µM: 8.6%
[8]
  Activity: 54.1%
[9]
  Activity: 1.7%
